Experimental data taken from patent US5750530A, “Pharmaceutical diketopiperazine compounds” (Xenova Limited, priority 1994, dated 1998).
pIC50: −log10 of the molar value. Counter-ions that a name gives are not always drawn.

Target: PAI-1 (Homo sapiens, UniProt P05121)
Assay: biochemical
Format: biochemical
Details: for pIC50: PAI chromogenic substrate assay
How it was run: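 Compound preincubated with PAI-1 before addition to a tPA system; residual tPA converts plasminogen to plasmin, which cleaves chromogenic substrate S2251. Released p-nitroaniline read at 405 nm; values given as % inhibition at set concentrations or IC50.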

PAI-1, sequence (P05121 24-402): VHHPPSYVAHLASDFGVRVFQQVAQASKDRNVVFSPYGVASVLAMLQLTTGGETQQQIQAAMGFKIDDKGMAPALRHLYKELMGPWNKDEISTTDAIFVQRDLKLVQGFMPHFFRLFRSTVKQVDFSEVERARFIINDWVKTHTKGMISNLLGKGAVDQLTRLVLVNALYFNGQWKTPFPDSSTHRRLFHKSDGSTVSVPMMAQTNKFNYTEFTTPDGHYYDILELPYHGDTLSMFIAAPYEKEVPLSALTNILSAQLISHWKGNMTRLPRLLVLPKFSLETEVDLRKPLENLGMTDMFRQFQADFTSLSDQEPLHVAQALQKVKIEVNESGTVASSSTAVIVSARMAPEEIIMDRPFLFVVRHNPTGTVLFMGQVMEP

Row | SMILES | % Inhibition (5 μm) [%] | % Inhibition (20 μm) [%] | pIC50
1 | CN(C)CCSc1ccc(/C=c2\[nH]c(=O)/c(=C/c3ccc(Cl)c(Cl)c3)[nH]c2=O)cc1 [Compound 5465, (3Z,6Z)-3-(3,4-Dichlorobenzylidene)-6-(4-(2-dimethylaminoethylthio)benzylidene)-2,5-piperazinedione] | 32 | 73 | 5.44
2 | CN(C)CCSc1ccc(/C=c2\[nH]c(=O)/c(=C/c3ccc(Cl)c(Cl)c3)[nH]c2=O)cc1 [Compound 5465.HCl, (3Z,6Z)-3-(3,4-Dichlorobenzylidene)-6-(4-(2-dimethylaminoethylthio)benzylidene)-2,5-piperazinedione] | 42 | 76 | 5.59
3 | CN(C)CCSc1ccc(/C=c2\[nH]c(=O)/c(=C/c3cccnc3)[nH]c2=O)s1 [Compound 5470, (3Z,6Z)-6-(5-(2-Dimethylaminoethylthio)-2-thienyl)methylene-3-(3-pyridylmethylene)-2,5-piperazinedione] | 1 | 0 | –
4 | CN(C)CCSc1ccc(/C=c2\[nH]c(=O)/c(=C/c3cccnc3)[nH]c2=O)s1 [Compound 5470.HCl, (3Z,6Z)-6-(5-(2-Dimethylaminoethylthio)-2-thienyl)methylene-3-(3-pyridylmethylene)-2,5-piperazinedione] | 1 | 1 | –
5 | CN(C)CCSc1ccc(/C=c2\[nH]c(=O)/c(=C/c3ccccn3)[nH]c2=O)s1 [Compound 5471, (3Z,6Z)-6-(5-(2-Dimethylaminoethylthio)-2-thienyl)methylene-3-(2-pyridylmethylene)-2,5-piperazinedione] | 0 | 1 | –
6 | CN(C)CCSc1ccc(/C=c2\[nH]c(=O)/c(=C/c3ccccn3)[nH]c2=O)s1 [Compound 5471.HCl, (3Z,6Z)-6-(5-(2-Dimethylaminoethylthio)-2-thienyl)methylene-3-(2-pyridylmethylene)-2,5-piperazinedione] | 1 | 2 | –
7 | CN(C)CCSc1ccc(/C=c2\[nH]c(=O)/c(=C/c3ccncc3)[nH]c2=O)s1 [Compound 5472, (3Z,6Z)-6-(5-(2-Dimethylaminoethylthio)-2-thienyl)methylene-3-(4-pyridylmethylene)-2,5-piperazinedione] | 0 | 22 | –
8 | CN(C)CCSc1ccc(/C=c2\[nH]c(=O)/c(=C/c3cn(C)c4ccccc34)[nH]c2=O)s1 [Compound 5473, (3Z,6Z)-6-(5-(2-Dimethylaminoethylthio)-2-thienyl)methylene-3-(1-methyl-3-indolyl)methylene-2,5-piperazinedione] | 25 | 61 | 4.86
9 | CN(C)CCSc1ccc(/C=c2\[nH]c(=O)/c(=C/c3cn(C)c4ccccc34)[nH]c2=O)s1 [Compound 5473.HCl, (3Z,6Z)-6-(5-(2-Dimethylaminoethylthio)-2-thienyl)methylene-3-(1-methyl-3-indolyl)methylene-2,5-piperazinedione] | 10 | 54 | 4.70
10 | CN(C)CCSc1ccc(/C=c2\[nH]c(=O)/c(=C/c3cccc(C#N)c3)[nH]c2=O)cc1 [Compound 5476, (3Z,6Z)-3-(3-Cyanobenzylidene)-6-(4-(2-dimethylaminoethylthio)benzylidene)-2,5-piperazinedione] | 21 | 38 | –
11 | CN(C)CCSc1ccc(/C=c2\[nH]c(=O)/c(=C/c3cccc(C#N)c3)[nH]c2=O)cc1 [Compound 5476.HCl, (3Z,6Z)-3-(3-Cyanobenzylidene)-6-(4-(2-dimethylaminoethylthio)benzylidene)-2,5-piperazinedione] | 11 | 34 | –
12 | COC(=O)c1ccc(/C=c2\[nH]c(=O)/c(=C/c3ccc(SCCN(C)C)s3)[nH]c2=O)cc1 [Compound 5477, (3Z,6Z)-3-(5-(2-Dimethylaminoethylthio)-2-thienyl)methylene-6-(4-methoxycarbonylbenzylidene)-2,5-piperazinedione] | 10 | 59 | 4.70
